Usually Papp A→B stands for the apparent permeability from the apical to the basolateral side of a cell layer. One may read the Papp B→A as the apparent permeability from the basolateral to the apical side of a cell layer.

System in the first data set: not listed separately
In words: Caco-2 membrane permeability / bi-directional transport (Papp). In kind it is in vitro ADME, human. To be noted: human; Caco-2 cells, A to B, 10 μM. The procedure: (§1) Determination of membrane permeability in all examples described herein was accomplished by the following procedure. This procedure is also used to determine whether a given prodrug falls within the scope of those claims given herein which relate to membrane permeability.
(§2) DMEM was equilibrated as a transport buffer in 37° C. water bath an hour before experiment. The cells were then equilibrated in transport buffer for 1 hr at 37° C.
(§3) Dosing solution (10 μM) was prepared by adding a 20 μL aliquot of a 10 mM stock solution of the prodrug to 20 mL of transport buffer.
(§4) Transport buffer was removed from both apical and basolateral compartment of filters. […] […] Fresh transport buffer (400 μL) was added back to the basolateral compartment, and the fluid was thoroughly mixed.
(§5) Lucifer yellow (LY) was used as a paracellular permeability reference standard to determine integrity of cell layers used in the experiments. LY transport in the apical to basolateral direction was carried out in the same manner as described above. Fluorescence level in basolateral fluid sampled at 5, 20, and 60 min post dose was determined using Fluostar Galaxy (BMG Labtechnologies, Durham, N.C.) at excitation/emission wavelengths of 485/520 nm. A standard curve covering the range from 0.002 to 0.5 mg/mL is constructed to quantify the amount of LY in the transport sample to calculate permeability coefficient (Papp).
In the case of `COc1ccc2[nH]c([S+]([O-])Cc3ncc(C)c(OC)c3C)nc2c1` (stereo not drawn) [Omeprazole], the Papp A→B at 60 min, 10 μM came to 12.6 ×10⁻⁶ cm/s.

The data set is the same for the next values; noted with them: human; Caco-2 cells, B to A, 10 μM.
For `COc1ccc2[nH]c([S+]([O-])Cc3ncc(C)c(OC)c3C)nc2c1` (stereo not drawn) [Omeprazole], the basolateral-to-apical permeability (Papp B→A) at 60 min, 10 μM is 16.3 ×10⁻⁶ cm/s.

Still in this data set, the particulars now being: human; Caco-2 cells; read-out: Ratio Papp BA/Papp AB.
For the compound `COc1ccc2[nH]c([S+]([O-])Cc3ncc(C)c(OC)c3C)nc2c1` (stereo not drawn) [Omeprazole], the efflux ratio at 60 min, 10 µM turned out to be 1.29.

Another data set has as its system Caco-2 cells. The description is as above. To be noted: apical to basolateral, 10 μM, 37° C. In kind it is in vitro ADME, human. The procedure: as §1, §2, §3, §4, §5
With `Cc1c(OCC(F)(F)F)ccnc1C[S+]([O-])c1nc2ccccc2n1S(=O)(=O)c1cccc(C(=O)O)c1` (stereo not drawn) [Compound 7], the Permeability amounted to 0.16 ×10⁻⁶ cm/s.
Still for that read-out and setting: under `COc1ccc(S(=O)(=O)n2c([S+]([O-])Cc3nccc(OCC(F)(F)F)c3C)nc3ccccc32)cc1C(=O)O` (stereo not drawn) [Compound 8] stands 0.23 ×10⁻⁶ cm/s.
`Cc1c(OCC(F)(F)F)ccnc1C[S+]([O-])c1nc2ccccc2n1S(=O)(=O)c1ccc(CC(=O)O)cc1` (stereo not drawn) [Compound 9] came in with a Permeability of 0.34 ×10⁻⁶ cm/s.

For a further data set, the system named is MDR1. The experiment in a line: MDR1-MDCK bi-directional transport (Papp). The following applies: dog; MDR1-MDCK cells, B to A, 10 μM. Type of data set: in vitro ADME.
Excerpt: as §1
• Test System: Cultured Caco-2 cells and MDR1-MDCK cells • Seeding Density: 2×10^5 cells/cm^2 in Costar 12 well Transwell™plates • Culture Age: 17-21 days post seeding for Caco-2 cells, 2-3 days post seeding for MDR1-MDCK cells • Source: American Type Culture Collection, Manassas, Va. […]
The apparent permeability coefficient (Papp, cm/sec), otherwise known herein as the membrane permeability, is determined from the following relationship: […]
The transport rate J, is calculated as the slope of the linear regression fit for the transport amount over time data using Microsoft Excel® 97 SR-2 (Microsoft Corp. Redmond, Wash.),
Lucifer yellow (LY) was used as a paracellular permeability reference standard to determine integrity of cell layers used in the experiments. […] Fluorescence level in basolateral fluid sampled at 5, 20, and 60 min post dose was determined using Fluostar Galaxy (BMG Labtechnologies, Durham, N.C.) at excitation/emission wavelengths of 485/520 nm. […]
Compound `COc1ccc2[nH]c([S+]([O-])Cc3ncc(C)c(OC)c3C)nc2c1` (stereo not drawn) [Omeprazole] came in with a basolateral-to-apical permeability (Papp B→A) at 60 min, 10 μM of 17.1 ×10⁻⁶ cm/s.

Still in this data set, the particulars now being: dog; MDR1-MDCK cells; read-out: Ratio Papp BA/Papp AB.
On to `COc1ccc2[nH]c([S+]([O-])Cc3ncc(C)c(OC)c3C)nc2c1` (stereo not drawn) [Omeprazole], for which the efflux ratio at 60 min, 10 µM is 1.52.

System in the next data set: not listed separately
The experiment in a line: Pharmacokinetics in rats after oral or intravenous administration. In kind it is in vivo, rats (Sprague-Dawley). On the set-up: key to Rat T1/2 Prodrug: NC: plasma concentration of prodrug was too low to calculate half-life, or undetected; Rat T1/2 PPI: unit not given here. The following applies: oral, systemic half-life of intact prodrug, parenthesis = standard deviation. The procedure: (§6) Blood concentrations of the compounds omeprazole, lansoprazole, pantoprazole, rabeprazole, and test compounds were quantified using an achiral liquid chromatography tandem mass spectrometry method (LC-MS/MS). Systemic pharmacokinetic parameters were determined for omeprazole or lansoprazole using non-compartmental analysis in Watson® version 6.3, available from InnaPhase Corporation, Philadelphia, Pa.
For the compound `Cc1c(OCC(F)(F)F)ccnc1C[S+]([O-])c1nc2ccccc2n1S(=O)(=O)c1cccc(C(=O)O)c1` (stereo not drawn) [Compound 7], the “Rat T1/2 Prodrug” value is “NC”.
On the same count and under the same terms, under `COc1ccc(S(=O)(=O)n2c([S+]([O-])Cc3nccc(OCC(F)(F)F)c3C)nc3ccccc32)cc1C(=O)O` (stereo not drawn) [Compound 8] stands “NC”; under `Cc1c(OCC(F)(F)F)ccnc1C[S+]([O-])c1nc2ccccc2n1S(=O)(=O)c1ccc(CC(=O)O)cc1` (stereo not drawn) [Compound 9], “NC”.
Still for that read-out and setting: with `Cc1c(OCC(F)(F)F)ccnc1C[S+]([O-])c1nc2ccccc2n1S(=O)(=O)c1ccc(OCC(C)(C)C(=O)O)cc1` (stereo not drawn) [Compound 11] the entry was “NC”.
In the case of `Cc1ccc(C(=O)O)cc1S(=O)(=O)n1c([S+]([O-])Cc2nccc(OCC(F)(F)F)c2C)nc2ccccc21` (stereo not drawn) [Compound 13], the “Rat T1/2 Prodrug” value is reported as “NC”.

The same data set, now with this note: oral, systemic half-life of the proton pump inhibitor, parenthesis = standard deviation.
Turning to `Cc1c(OCC(F)(F)F)ccnc1C[S+]([O-])c1nc2ccccc2n1S(=O)(=O)c1cccc(C(=O)O)c1` (stereo not drawn) [Compound 7], the “Rat T1/2 PPI” value is given as 1.93 (1.41).
As to `COc1ccc(S(=O)(=O)n2c([S+]([O-])Cc3nccc(OCC(F)(F)F)c3C)nc3ccccc32)cc1C(=O)O` (stereo not drawn) [Compound 8], the “Rat T1/2 PPI” value is listed as 1.80 (1.20).
Regarding `Cc1c(OCC(F)(F)F)ccnc1C[S+]([O-])c1nc2ccccc2n1S(=O)(=O)c1ccc(CC(=O)O)cc1` (stereo not drawn) [Compound 9], the “Rat T1/2 PPI” value was 0.341 (0.151).
Same read-out and setting: under `Cc1c(OCC(F)(F)F)ccnc1C[S+]([O-])c1nc2ccccc2n1S(=O)(=O)c1ccc(OCC(C)(C)C(=O)O)cc1` (stereo not drawn) [Compound 11] stands 0.933 (1.009); under `Cc1ccc(C(=O)O)cc1S(=O)(=O)n1c([S+]([O-])Cc2nccc(OCC(F)(F)F)c2C)nc2ccccc21` (stereo not drawn) [Compound 13], 2.35 (1.22).
The same measure, in the same setting: with `COc1ccc(C(=O)O)cc1S(=O)(=O)n1c([S+]([O-])Cc2nccc(OCC(F)(F)F)c2C)nc2ccccc21` (stereo not drawn) [Compound 14] the figure was 0.536 (0.217).

System in another data set: not listed separately
The experiment in a line: Pharmacokinetics in dogs after oral or intravenous administration. Type of data set: in vivo, dogs (beagle). On the set-up: key to Dog T1/2 Prodrug: NC: plasma concentration of prodrug was too low to calculate half-life, or undetected. To be noted: dog; oral; systemic half-life of intact prodrug; parenthesis = standard deviation. The protocol: as §6
For the compound `Cc1c(OCC(F)(F)F)ccnc1C[S+]([O-])c1nc2ccccc2n1S(=O)(=O)c1cccc(C(=O)O)c1` (stereo not drawn) [Compound 7], the Dog T1/2 Prodrug is 12.4 min.
The same measure, in the same setting: with `COc1ccc(S(=O)(=O)n2c([S+]([O-])Cc3nccc(OCC(F)(F)F)c3C)nc3ccccc32)cc1C(=O)O` (stereo not drawn) [Compound 8] the entry was “NC”.
The same measure, in the same setting: under `Cc1c(OCC(F)(F)F)ccnc1C[S+]([O-])c1nc2ccccc2n1S(=O)(=O)c1ccc(CC(=O)O)cc1` (stereo not drawn) [Compound 9] stands “NC”.
Still for that read-out and setting: under `Cc1c(OCC(F)(F)F)ccnc1C[S+]([O-])c1nc2ccccc2n1S(=O)(=O)c1ccc(OCC(=O)O)cc1` (stereo not drawn) [Compound 10] stands “NC”; under `Cc1c(OCC(F)(F)F)ccnc1C[S+]([O-])c1nc2ccccc2n1S(=O)(=O)c1ccc(OCC(C)(C)C(=O)O)cc1` (stereo not drawn) [Compound 11], “NC”.
Turning to `Cc1c(OCC(F)(F)F)ccnc1C[S+]([O-])c1nc2ccccc2n1S(=O)(=O)c1ccc(CC(=O)O)c(CC(=O)O)c1` (stereo not drawn) [Compound 12], the “Dog T1/2 Prodrug” value was “NC”.
On the same count and under the same terms, with `Cc1ccc(C(=O)O)cc1S(=O)(=O)n1c([S+]([O-])Cc2nccc(OCC(F)(F)F)c2C)nc2ccccc21` (stereo not drawn) [Compound 13] the figure was 7.32 min; with `COc1ccc(C(=O)O)cc1S(=O)(=O)n1c([S+]([O-])Cc2nccc(OCC(F)(F)F)c2C)nc2ccccc21` (stereo not drawn) [Compound 14], 7.08 min.
Same read-out and setting: under `Cc1c(OCC(F)(F)F)ccnc1C[S+]([O-])c1nc2ccccc2n1S(=O)(=O)c1ccc(CC(=O)O)cc1C(C)C` (stereo not drawn) [Compound 15] stands “NC”.

The data set is the same for the next values; noted with them: dog; oral; systemic half-life of the proton pump inhibitor; parenthesis = standard deviation.
For the compound `Cc1c(OCC(F)(F)F)ccnc1C[S+]([O-])c1nc2ccccc2n1S(=O)(=O)c1cccc(C(=O)O)c1` (stereo not drawn) [Compound 7], the Dog T1/2 PPI is 53.6 min.
Regarding `COc1ccc(S(=O)(=O)n2c([S+]([O-])Cc3nccc(OCC(F)(F)F)c3C)nc3ccccc32)cc1C(=O)O` (stereo not drawn) [Compound 8], the Dog T1/2 PPI is 64.8 min.
Still for that read-out and setting: with `Cc1c(OCC(F)(F)F)ccnc1C[S+]([O-])c1nc2ccccc2n1S(=O)(=O)c1ccc(CC(=O)O)cc1` (stereo not drawn) [Compound 9] the figure was 53.6 min; with `Cc1c(OCC(F)(F)F)ccnc1C[S+]([O-])c1nc2ccccc2n1S(=O)(=O)c1ccc(OCC(=O)O)cc1` (stereo not drawn) [Compound 10], 0.989 (0.307).
On the same count and under the same terms, with `Cc1c(OCC(F)(F)F)ccnc1C[S+]([O-])c1nc2ccccc2n1S(=O)(=O)c1ccc(OCC(C)(C)C(=O)O)cc1` (stereo not drawn) [Compound 11] the figure was 0.873 (0.288); with `Cc1c(OCC(F)(F)F)ccnc1C[S+]([O-])c1nc2ccccc2n1S(=O)(=O)c1ccc(CC(=O)O)c(CC(=O)O)c1` (stereo not drawn) [Compound 12], 55.9 min.
Same read-out and setting: under `Cc1ccc(C(=O)O)cc1S(=O)(=O)n1c([S+]([O-])Cc2nccc(OCC(F)(F)F)c2C)nc2ccccc21` (stereo not drawn) [Compound 13] stands 106 min; under `COc1ccc(C(=O)O)cc1S(=O)(=O)n1c([S+]([O-])Cc2nccc(OCC(F)(F)F)c2C)nc2ccccc21` (stereo not drawn) [Compound 14], 83.4 min; under `Cc1c(OCC(F)(F)F)ccnc1C[S+]([O-])c1nc2ccccc2n1S(=O)(=O)c1ccc(CC(=O)O)cc1C(C)C` (stereo not drawn) [Compound 15], 55.4 min.

Staying with this data set, now noted: systemic half-life of PPI in dogs after oral administration.
Turning to `Cc1c(OCC(F)(F)F)ccnc1C[S+]([O-])c1nc2ccccc2n1S(=O)(=O)c1cccc(C(=O)O)c1` (stereo not drawn) [Compound 7], the t1/2 was 53.4 min.
Still for that read-out and setting: with `COc1ccc(S(=O)(=O)n2c([S+]([O-])Cc3nccc(OCC(F)(F)F)c3C)nc3ccccc32)cc1C(=O)O` (stereo not drawn) [Compound 8] the figure was 66 min; with `Cc1c(OCC(F)(F)F)ccnc1C[S+]([O-])c1nc2ccccc2n1S(=O)(=O)c1ccc(CC(=O)O)cc1` (stereo not drawn) [Compound 9], 53.4 min.

System in another data set: not given
Assay: not given
To be noted: pH 5; somewhat buffer dependent; Kromer et al., Ekpe et al.; cited from earlier work.
For `COc1ccc2[nH]c([S+]([O-])Cc3ncc(C)c(OC)c3C)nc2c1` (stereo not drawn) [Omeprazole], the “typical half-life (stability)” value is “about 1 hour”.

The data set is the same for the next values; noted with them: pH 7; somewhat buffer dependent; Kromer et al., Ekpe et al.; cited from earlier work.
For `COc1ccc2[nH]c([S+]([O-])Cc3ncc(C)c(OC)c3C)nc2c1` (stereo not drawn) [Omeprazole], the “typical half-life (stability)” value was “about 40 hours”.

The values are drawn from patent US20100298205A1, “METHODS AND COMPOSITIONS FOR THE TREATMENT OF CONDITIONS RELATED TO GASTRIC ACID SECRETION” (priority 2004, published 2010).
